16 compounds from patent US10072011B2, “Substituted bridged urea analogs as sirtuin modulators” (GlaxoSmithKline Intellectual Property (No.2) Limited, priority 2014, dated 2018) can be followed below.

This assay addresses T1, SIRT1 (Homo sapiens, UniProt Q96EB6).
T1 sequence (Q96EB6 1-747): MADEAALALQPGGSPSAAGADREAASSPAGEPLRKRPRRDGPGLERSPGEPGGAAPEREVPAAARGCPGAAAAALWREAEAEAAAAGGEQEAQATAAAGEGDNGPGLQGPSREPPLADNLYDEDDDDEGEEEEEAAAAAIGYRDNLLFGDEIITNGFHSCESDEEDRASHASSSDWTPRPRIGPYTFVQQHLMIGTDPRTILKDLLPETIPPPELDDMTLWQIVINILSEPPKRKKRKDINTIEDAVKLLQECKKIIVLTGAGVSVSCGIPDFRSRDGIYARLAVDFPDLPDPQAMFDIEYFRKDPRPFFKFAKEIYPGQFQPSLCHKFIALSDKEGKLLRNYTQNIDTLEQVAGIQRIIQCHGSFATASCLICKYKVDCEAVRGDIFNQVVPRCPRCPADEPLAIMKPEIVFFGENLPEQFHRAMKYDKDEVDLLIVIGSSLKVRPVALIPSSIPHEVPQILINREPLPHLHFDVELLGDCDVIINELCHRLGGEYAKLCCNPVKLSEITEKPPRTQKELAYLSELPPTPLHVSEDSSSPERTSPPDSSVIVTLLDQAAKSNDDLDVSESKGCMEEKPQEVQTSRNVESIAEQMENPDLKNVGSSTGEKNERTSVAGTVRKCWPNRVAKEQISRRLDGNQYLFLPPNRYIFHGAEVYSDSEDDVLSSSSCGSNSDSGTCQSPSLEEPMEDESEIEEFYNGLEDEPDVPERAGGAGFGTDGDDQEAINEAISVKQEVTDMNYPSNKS
As to the kind of experiment: Trp mass spectrometry assay of SIRT1 activation (Ac-R-H-K-K(Ac)-W-NH2 peptide). The assay is classed as biochemical. The following applies: for Emax: 25 min, read-out: TRP MAX RESP (percent maximum fold activation). The procedure, abridged: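 Mass spectrometry read-out (OAADPR formed, or deacetylated Trp peptide) after a 25 min NAD-dependent deacetylation by E. coli-expressed His-SIRT1, stopped with formic acid.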

Where [1] appears, read: Trp peptide 0.5 μM, 120 μM βNAD+, 10 nM SIRT1, 25 min at 25° C., relative to control (100%).
Where [2] appears, read: Trp peptide 0.5 μM, 120 μM βNAD+, 10 nM SIRT1, 25 min at 25° C.

Where two headings read alike, the source gives them in different places. Some results are limits rather than exact numbers.

For the compound `O=C(NCc1cccc(F)c1)c1ccc2c(n1)N(C(=O)Nc1cc(OC[C@H](O)CO)ccn1)[C@H]1CCN2C1` [Example 187, (4S)—N5-(4-((R)-2,3-dihydroxypropoxy)pyridin-2-yl)-N7-(3-fluorobenzyl)-3,4-dihydro-1,4-methanopyrido[2,3-b][1,4]diazepine-5,7(2H)-dicarboxamide], under setting [1], the Emax is greater than 150%. Also, the “TRP Activity (EC1.5, concentration of test compound that results in 150% activation of SIRT1)” value under setting [2] is listed as “A (EC1.5<1 μM)”.
For `C[C@@H](NC(=O)c1ccc2c(n1)N(C(=O)Nc1cn(C)ccc1=O)[C@H]1CCN2C1)C(F)(F)F` [Example 188, (4S)—N5-(1-methyl-4-oxo-1,4-dihydropyridin-3-yl)-N7-((R)-1,1,1-trifluoropropan-2-yl)-3,4-dihydro-1,4-methanopyrido[2,3-b][1,4]diazepine-5,7(2H)-dicarboxamide], in that order: greater than 150% and “B (EC1.5 1-25 μM)”.
As to `C[C@@H](NC(=O)c1ccc2c(n1)N(C(=O)Nc1cc(OC[C@H](O)CO)ncn1)[C@H]1CCN2C1)C(F)(F)F` [Example 189, (4S)—N5-(6-((R)-2,3-dihydroxypropoxy)pyrimidin-4-yl)-N7-((R)-1,1,1-trifluoropropan-2-yl)-3,4-dihydro-1,4-methanopyrido[2,3-b][1,4]diazepine-5,7(2H)-dicarboxamide], the Emax under setting [1] is greater than 150%. Moreover, the “TRP Activity (EC1.5, concentration of test compound that results in 150% activation of SIRT1)” value under setting [2] is reported as “A (EC1.5<1 μM)”.
For `C[C@@H](NC(=O)c1ccc2c(n1)N(C(=O)Nc1ccsn1)[C@H]1CCN2C1)C(F)(F)F` [Example 190, (4S)—N5-(isothiazol-3-yl)-N7-((R)-1,1,1-trifluoropropan-2-yl)-3,4-dihydro-1,4-methanopyrido[2,3-b][1,4]diazepine-5,7(2H)-dicarboxamide], in that order: greater than 150% and “A (EC1.5<1 μM)”.
The like results for `C[C@@H](NC(=O)c1ccc2c(n1)N(C(=O)Nc1nccs1)[C@H]1CCN2C1)C(F)(F)F` [Example 191, (4S)—N5-(thiazol-2-yl)-N7-((R)-1,1,1-trifluoropropan-2-yl)-3,4-dihydro-1,4-methanopyrido[2,3-b][1,4]diazepine-5,7(2H)-dicarboxamide] were, in that order, greater than 150% and “A (EC1.5<1 μM)”.
`C[C@@H](NC(=O)c1ccc2c(n1)N(C(=O)Nc1cc3nc[nH]c3cn1)[C@H]1CCN2C1)C(F)(F)F` [Example 192, (4S)—N5-(3H-imidazo[4,5-c]pyridin-6-yl)-N7-((R)-1,1,1-trifluoropropan-2-yl)-3,4-dihydro-1,4-methanopyrido[2,3-b][1,4]diazepine-5,7(2H)-dicarboxamide]: under setting [1], the Emax is greater than 150%. Further, under setting [2], the “TRP Activity (EC1.5, concentration of test compound that results in 150% activation of SIRT1)” value is “A (EC1.5<1 μM)”.
For the compound `C[C@@H](NC(=O)c1ccc2c(n1)N(C(=O)Nc1ccc(OC[C@H](O)CO)nn1)[C@H]1CCN2C1)C(F)(F)F` [Example 193, (4S)—N5-(6-((R)-2,3-dihydroxypropoxy)pyridazin-3-yl)-N7-((R)-1,1,1-trifluoropropan-2-yl)-3,4-dihydro-1,4-methanopyrido[2,3-b][1,4]diazepine-5,7(2H)-dicarboxamide], the Emax under setting [1] was greater than 150%. The “TRP Activity (EC1.5, concentration of test compound that results in 150% activation of SIRT1)” value under setting [2] is “A (EC1.5<1 μM)”.
On to `C[C@@H](NC(=O)c1ccc2c(n1)N(C(=O)Nc1cnc(OC[C@H](O)CO)cn1)[C@H]1CCN2C1)C(F)(F)F` [Example 194, (4S)—N5-(5-((R)-2,3-dihydroxypropoxy)pyrazin-2-yl)-N7-((R)-1,1,1-trifluoropropan-2-yl)-3,4-dihydro-1,4-methanopyrido[2,3-b][1,4]diazepine-5,7(2H)-dicarboxamide], for which, under setting [1], the Emax is greater than 150%. For the same compound, under setting [2], the “TRP Activity (EC1.5, concentration of test compound that results in 150% activation of SIRT1)” value was “A (EC1.5<1 μM)”.
The like results for `O=C(NCc1nccs1)c1ccc2c(n1)N(C(=O)Nc1cc(OC[C@H](O)CO)ccn1)[C@H]1CCN2C1` [Example 195, (4S)—N5-(4-((R)-2,3-dihydroxypropoxy)pyridin-2-yl)-N7-(thiazol-2-ylmethyl)-3,4-dihydro-1,4-methanopyrido[2,3-b][1,4]diazepine-5,7(2H)-dicarboxamide] were, in that order, greater than 150% and “B (EC1.5 1-25 μM)”.
Turning to `O=C(NCc1cscn1)c1ccc2c(n1)N(C(=O)Nc1cc(OC[C@H](O)CO)ccn1)[C@H]1CCN2C1` [Example 199, (4S)—N5-(4-((R)-2,3-dihydroxypropoxy)pyridin-2-yl)-N7-(thiazol-4-ylmethyl)-3,4-dihydro-1,4-methanopyrido[2,3-b][1,4]diazepine-5,7(2H)-dicarboxamide], under setting [1], the Emax was greater than 150%. For the same compound, under setting [2], the “TRP Activity (EC1.5, concentration of test compound that results in 150% activation of SIRT1)” value is reported as “B (EC1.5 1-25 μM)”.
For `CC(C)(CO)NC(=O)c1ccc2c(n1)N(C(=O)Nc1ccccn1)[C@H]1CCN2C1` [Example 200, (4S)—N7-(1-hydroxy-2-methylpropan-2-yl)-N5-(pyridin-2-yl)-3,4-dihydro-1,4-methanopyrido[2,3-b][1,4]diazepine-5,7(2H)-dicarboxamide], under setting [1], the Emax was greater than 150%. Also, the “TRP Activity (EC1.5, concentration of test compound that results in 150% activation of SIRT1)” value under setting [2] is given as “B (EC1.5 1-25 μM)”.
Turning to `CN(C)NC(=O)c1ccc2c(n1)N(C(=O)Nc1ccccn1)[C@H]1CCN2C1` [Example 201, (4S)-7-(2,2-dimethylhydrazinecarbonyl)-N-(pyridin-2-yl)-3,4-dihydro-1,4-methanopyrido[2,3-b][1,4]diazepine-5(2H)-carboxamide], the Emax was greater than 150%. Besides, the “TRP Activity (EC1.5, concentration of test compound that results in 150% activation of SIRT1)” value under setting [2] is listed as “B (EC1.5 1-25 μM)”.
Turning to `CC(C)(O)CNC(=O)c1ccc2c(n1)N(C(=O)Nc1ccccn1)[C@H]1CCN2C1` [Example 202, (4S)—N7-(2-hydroxy-2-methylpropyl)-N5-(pyridin-2-yl)-3,4-dihydro-1,4-methanopyrido[2,3-b][1, 4] diazepine-5,7(2H)-dicarboxamide], the Emax under setting [1] is greater than 150%. The “TRP Activity (EC1.5, concentration of test compound that results in 150% activation of SIRT1)” value under setting [2] is “B (EC1.5 1-25 μM)”.
The like results for `C[C@@H](O)CNC(=O)c1ccc2c(n1)N(C(=O)Nc1ccccn1)[C@H]1CCN2C1` [Example 203, (4S)—N7-((R)-2-hydroxypropyl)-N5-(pyridin-2-yl)-3,4-dihydro-1,4-methanopyrido[2,3-b][1,4]diazepine-5,7(2H)-dicarboxamide] were, in that order, greater than 150% and “B (EC1.5 1-25 μM)”.
Regarding `O=C(NC1CC1)c1ccc2c(n1)N(C(=O)Nc1ncccn1)[C@H]1CCN2C1` [Example 204, (4S)—N7-cyclopropyl-N5-(pyrimidin-2-yl)-3,4-dihydro-1,4-methanopyrido[2,3-b][1,4]diazepine-5,7(2H)-dicarboxamide], the Emax under setting [1] is greater than 150%. The “TRP Activity (EC1.5, concentration of test compound that results in 150% activation of SIRT1)” value under setting [2] is given as “B (EC1.5 1-25 μM)”.
The like results for `Cc1nc(NC(=O)N2c3nc(C(=O)NC4CC4)ccc3N3CC[C@H]2C3)ccc1F` [Example 205, (4S)—N7-cyclopropyl-N5-(5-fluoro-6-methylpyridin-2-yl)-3,4-dihydro-1,4-methanopyrido[2,3-b][1,4]diazepine-5,7(2H)-dicarboxamide] were, in that order, greater than 150% and “B (EC1.5 1-25 μM)”.
